# Counter-ions that a name gives are not always drawn. The source made the active and inactive calls.
# Legend:
# [1] = inhibitors of intracellular T. cruzi replication, confirmation, NIH3T3 host cells, beta-gal luminescence (AID 2044); format: functional, cell-based;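 also: intracellular parasites grown in NIH/3T3 mouse fibroblasts as host cells; luminescent beta-galactosidase reporter signal from transgenic T. cruzi replicating inside host cells; inhibitors lower the luminescence signal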
# [2] = cytotoxicity toward NIH3T3 fibroblasts, dose response, counter-screen, cell-based, ATP luminescence, mouse fibroblasts (AID 2010); format: functional;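 also: cells exposed to compound for about 90 hours before reading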
# [3] = biological target: Heat shock protein HSP 90-alpha (Homo sapiens, UniProt P07900); format: functional, organism-based
# Albumin = Albumin (Bos taurus, UniProt P02769); experiment: Counterscreen for inhibitors of T-cell receptor (TCR)-CD3 interaction: Fluorescence-based biochemical high throughput dose response assay to identify inhibitors of T-cell receptor (TCR)-CD3 interaction using a TAMRA-labeled BSA probe.; format: functional
# [4] = ADAM10 inhibitors, peptide cleavage, dose response, biochemical, QFRET (AID 743254);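 also: ADAM10 enzyme with the DM2 quenched FRET peptide as substrate; EDANS fluorescence gain as the protease cuts the substrate; inhibitor potency against ADAM10 proteolytic activity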
# [5] = biological target: Disintegrin and metalloproteinase domain-containing protein 17 (Homo sapiens, UniProt P78536); experiment: ADAM17 protease inhibitors, dose response, counter-screen for ADAM10 exosite inhibitor project, biochemical, quenched FRET substrate (AID 743253)
# [6] = miR-122 activators in hepatoma reporter cells, dose response, cell-based, Huh7 psiCHECK-miR122, Renilla luciferase, cherry-picked (AID 651956); format: functional;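 also: huh7 hepatoma cells stably carrying a psiCHECK-2 miR-122 sensor plasmid; renilla luciferase signal reporting endogenous miR-122 activity after 48 h compound exposure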
# cells = format: functional, cell-based
# [7] = biological target: T1, Nuclear receptor subfamily 0 group B member 1 (Homo sapiens, UniProt P51843); format: functional, cell-based;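 also: HEK293T cells transfected with SF-1 and DAX-1 plus StAR promoter luciferase reporter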
# T1 sequence (P51843 whole entry): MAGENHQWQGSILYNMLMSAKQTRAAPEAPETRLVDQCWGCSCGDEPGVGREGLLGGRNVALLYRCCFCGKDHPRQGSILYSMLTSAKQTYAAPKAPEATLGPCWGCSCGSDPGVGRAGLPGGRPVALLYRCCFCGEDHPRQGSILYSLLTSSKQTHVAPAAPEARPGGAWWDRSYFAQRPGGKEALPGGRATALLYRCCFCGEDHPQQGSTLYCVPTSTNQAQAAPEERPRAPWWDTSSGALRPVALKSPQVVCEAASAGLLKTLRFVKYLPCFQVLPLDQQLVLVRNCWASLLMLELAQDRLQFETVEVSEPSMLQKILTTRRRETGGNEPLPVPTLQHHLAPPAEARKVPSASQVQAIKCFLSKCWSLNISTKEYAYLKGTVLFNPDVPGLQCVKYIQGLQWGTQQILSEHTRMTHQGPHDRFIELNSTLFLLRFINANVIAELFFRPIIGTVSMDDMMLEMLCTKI
# Paired box protein Pax-8 = Paired box protein Pax-8 (Homo sapiens, UniProt Q06710); experiment: inhibitors of PAX8-driven TPO luciferase reporter, dose response, RMG-I cells, cherry-pick (AID 687027); format: functional, cell-based;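 also: luciferase reporter driven by Pax8 target thyroperoxidase promoter measured by SteadyGlo luminescence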
# [8] = HeLa 2N DNA content increase, dose response, cell-based, IC50 (AID 1117349); format: functional
# [9] = RKO cell viability reduction, dose response, CellTiter-Glo luminescence (AID 1117322); format: functional
# [10] = cytotoxicity toward HCT116 cells – cell-based, CellTiter-Glo luminescence, IC50, dose response (AID 1117332); format: functional; conditions: HCT-116
# [11] = cytotoxicity toward Colo320 cells – cell-based, CellTiter-Glo luminescence, IC50, dose response (AID 1117334); format: functional; conditions: COLO 320
# [12] = HeLa 4N DNA content increase, dose response, cell-based, IC50 (AID 1117351); format: functional
# [13] = cytotoxicity toward HT-29 cells – cell-based, CellTiter-Glo luminescence, IC50, dose response (AID 1117330); format: functional
# [14] = HCT116 cell viability decrease, GSK3B pretreatment – CellTiter-Glo, IC50, dose response (AID 1117339); format: functional; conditions: HCT-116
# [15] = biological target: Nuclear receptor subfamily 5 group A member 2 (Homo sapiens, UniProt O00482); format: functional, cell-based;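 also: HEK293T cells transfected with LRH-1 and a StAR promoter luciferase reporter; potency for inhibitors that lower LRH-1 driven reporter light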
# Steroidogenic factor 1 = Steroidogenic factor 1 (Homo sapiens, UniProt Q13285); experiment: Counterscreen for inverse agonists of the liver receptor homolog-1 (LRH-1; NR5A2): Luminescence-based cell-based high throughput dose response assay to identify inverse agonists of the Steroidogenic Factor 1 Nuclear Receptor (SF1; NR5A1).; format: functional
# [16] = StAR promoter reporter inhibition counter-screen, dose response, counter-screen for LRH-1 inverse agonist project, cell-based, luminescence, luciferase reporter (AID 651969); format: functional
# [17] = Artemis endonuclease inhibitor potency, dose response, biochemical, fluorescence intensity (AID 720701); format: functional;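 also: Artemis endonuclease enzyme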
# [18] = biological target: T2, Glutathione-S-transferase (Schistosoma japonicum, UniProt Q26513); experiment: biotin-GST/anti-GST TR-FRET signal inhibitors, dose response, artefact control for Vif-APOBEC3G degradation inhibitor project, biochemical (AID 1117362); format: functional
# T2 sequence (Q26513 whole entry): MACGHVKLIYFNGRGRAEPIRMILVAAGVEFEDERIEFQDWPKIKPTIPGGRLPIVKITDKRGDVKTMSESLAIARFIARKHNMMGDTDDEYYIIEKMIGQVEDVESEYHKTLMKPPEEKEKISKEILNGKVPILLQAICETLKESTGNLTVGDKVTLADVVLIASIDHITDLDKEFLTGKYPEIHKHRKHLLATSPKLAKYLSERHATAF
# [19] = biological target: G-protein coupled receptor 183 (Homo sapiens, UniProt P32249); experiment: SAR confirmation of small molecule antagonists of the EBI2 receptor via a luminescent beta-arrestin assa.; format: functional
# [20] = inhibitors of HIV Env-driven cell fusion, dose response, cherry-pick (AID 652057); format: functional, cell-based
# [21] = CEM21 lymphoblast cell cytotoxicity, dose response, cytotoxicity control for viral fusion inhibitor project, CellTiter-Glo luminescence, cherry-picked (AID 652042); format: functional, cell-based;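 also: potency for signal decrease meaning cytotoxicity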
# [22] = ZM109 Env clade C HIV-1 fusion inhibitors, dose response, HeLa effector, CEM target cells, luciferase, cherry-pick (AID 652058); format: functional, cell-based
# [23] = off-target signal loss in HeLa-CEM21 co-culture – HeLa F-luc CTL cells, cherry-picked, counter-screen for HIV-1 Env fusion inhibitor project, dose response (AID 652040); format: functional, cell-based;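 also: potency for signal decrease marking cytotoxic or nonspecific inhibition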
# [24] = inhibitors of clade B AD8 Env fusion, dose response, cell-based, cherry-pick (AID 652062); format: functional;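 also: luciferase signal from cell-cell fusion driven by HIV-1 clade B AD8 Env; potency is for inhibitors of fusion seen as a drop in luminescence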
# [25] = NIH-3T3 fibroblast cytotoxicity, dose response, cytotoxicity control, cell-based, fluorescence, Alamar Blue, secondary assay (AID 2327); format: functional;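 also: NIH-3T3 mouse fibroblasts cultured with fluconazole at 8 µg/mL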
# [26] = C. albicans growth with fluconazole, confirmation, fluorescence, retest (AID 2467); format: functional, cell-based
# Protein Tat = biological target: T3, Protein Tat (Human immunodeficiency virus type 1 group M subtype B (isolate HXB2)(HIV-1), UniProt P04608); format: functional;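 also: tat binding to TAR RNA read out by fluorescence polarization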
# T3 sequence (P04608 whole entry): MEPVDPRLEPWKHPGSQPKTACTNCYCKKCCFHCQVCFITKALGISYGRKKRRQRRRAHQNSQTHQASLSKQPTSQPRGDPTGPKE
# [27] = system: Streptococcus sp. 'group A'; experiment: growth inhibition of control SK(-) GAS strain, dose response, counter-screen for streptokinase expression inhibitor project, luminescence, kanamycin, BacTiterGlo, confirmation (AID 1900); format: functional, organism-based
# Streptokinase A = biological target: T4, Streptokinase A (Streptococcus pyogenes serotype M1, UniProt P10520); experiment: S. pyogenes streptokinase expression inhibitors, potency, dose response, plasminogen activation absorbance, OD405 (AID 1914); format: functional, Streptococcus pyogenes M1 GAS;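 also: secreted streptokinase activity via plasminogen activation per viability signal from cell pellet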
# T4 sequence (P10520 whole entry): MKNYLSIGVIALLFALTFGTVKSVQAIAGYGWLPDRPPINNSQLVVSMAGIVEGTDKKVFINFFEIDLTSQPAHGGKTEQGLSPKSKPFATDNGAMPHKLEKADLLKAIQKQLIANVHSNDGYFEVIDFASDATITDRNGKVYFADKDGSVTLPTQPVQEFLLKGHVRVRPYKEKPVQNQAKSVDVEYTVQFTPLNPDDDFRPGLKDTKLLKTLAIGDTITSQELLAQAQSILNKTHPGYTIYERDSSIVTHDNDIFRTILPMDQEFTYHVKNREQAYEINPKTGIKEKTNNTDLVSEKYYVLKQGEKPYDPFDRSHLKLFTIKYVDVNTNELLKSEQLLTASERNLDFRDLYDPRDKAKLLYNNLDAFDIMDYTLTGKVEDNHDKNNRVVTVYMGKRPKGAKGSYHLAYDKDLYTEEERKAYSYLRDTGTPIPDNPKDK
# Streptococcus = experiment: Group A Streptococcus viability loss, dose response, counter-screen for streptokinase expression inhibitor project, luminescence, BacTiterGlo (AID 1915); format: functional, organism-based;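 also: potency for reduction of bacterial viability or growth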
# [28] = biological target: T5, Probable nicotinate-nucleotide adenylyltransferase (Staphylococcus aureus (strain N315), UniProt P65502); format: functional, Staphylococcus aureus subsp. aureus N315;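 as to IC50 Mean: confirmatory dose-response retesting of NadD inhibitor hits first found in an ultra-high-throughput screen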
# [29] = biological target: T5, Probable nicotinate-nucleotide adenylyltransferase; format: functional, Staphylococcus aureus subsp. aureus N315; conditions: read-out: IC50_Mean
# Disintegrin and metalloproteinase domain-containing protein 17, sequence (P78536 whole entry, the tested form may be a part): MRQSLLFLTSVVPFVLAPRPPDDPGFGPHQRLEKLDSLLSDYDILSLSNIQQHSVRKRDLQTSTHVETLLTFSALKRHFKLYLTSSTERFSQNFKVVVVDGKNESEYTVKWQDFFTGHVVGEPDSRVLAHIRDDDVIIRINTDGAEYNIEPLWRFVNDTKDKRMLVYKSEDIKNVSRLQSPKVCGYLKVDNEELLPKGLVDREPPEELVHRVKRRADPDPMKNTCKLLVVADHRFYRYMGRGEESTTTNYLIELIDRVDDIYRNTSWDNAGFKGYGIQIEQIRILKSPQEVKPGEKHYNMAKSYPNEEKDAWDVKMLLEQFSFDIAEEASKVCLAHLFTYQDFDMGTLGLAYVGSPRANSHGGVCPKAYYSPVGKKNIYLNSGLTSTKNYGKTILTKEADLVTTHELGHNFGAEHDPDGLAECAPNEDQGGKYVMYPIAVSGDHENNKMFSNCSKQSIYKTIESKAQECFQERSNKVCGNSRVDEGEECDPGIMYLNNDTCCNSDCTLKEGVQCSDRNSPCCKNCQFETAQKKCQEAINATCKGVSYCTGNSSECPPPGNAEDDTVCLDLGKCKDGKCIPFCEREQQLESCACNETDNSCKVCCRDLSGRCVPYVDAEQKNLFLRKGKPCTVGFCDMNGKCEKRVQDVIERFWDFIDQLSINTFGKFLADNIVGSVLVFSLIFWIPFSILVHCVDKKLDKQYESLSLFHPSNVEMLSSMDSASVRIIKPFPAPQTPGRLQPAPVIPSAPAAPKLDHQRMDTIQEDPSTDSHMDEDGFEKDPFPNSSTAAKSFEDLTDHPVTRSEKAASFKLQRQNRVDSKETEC
# Albumin, sequence (P02769 whole entry): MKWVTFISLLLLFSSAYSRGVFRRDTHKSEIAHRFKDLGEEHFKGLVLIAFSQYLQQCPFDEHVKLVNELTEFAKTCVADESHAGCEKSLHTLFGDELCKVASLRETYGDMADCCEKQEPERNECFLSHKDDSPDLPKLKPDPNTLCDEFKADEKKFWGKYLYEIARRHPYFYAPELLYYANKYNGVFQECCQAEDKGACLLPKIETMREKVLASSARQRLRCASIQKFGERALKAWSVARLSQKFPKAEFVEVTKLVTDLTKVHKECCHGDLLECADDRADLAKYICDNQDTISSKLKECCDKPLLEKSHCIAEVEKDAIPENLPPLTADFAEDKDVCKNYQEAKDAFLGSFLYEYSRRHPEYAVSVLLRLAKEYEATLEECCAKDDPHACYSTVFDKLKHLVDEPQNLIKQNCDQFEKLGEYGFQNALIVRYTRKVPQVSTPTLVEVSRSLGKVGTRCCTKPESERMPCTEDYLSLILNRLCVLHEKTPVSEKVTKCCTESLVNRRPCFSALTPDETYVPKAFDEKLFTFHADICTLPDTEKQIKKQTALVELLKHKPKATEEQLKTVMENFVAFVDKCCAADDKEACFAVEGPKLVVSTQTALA
# T5 sequence (P65502 whole entry): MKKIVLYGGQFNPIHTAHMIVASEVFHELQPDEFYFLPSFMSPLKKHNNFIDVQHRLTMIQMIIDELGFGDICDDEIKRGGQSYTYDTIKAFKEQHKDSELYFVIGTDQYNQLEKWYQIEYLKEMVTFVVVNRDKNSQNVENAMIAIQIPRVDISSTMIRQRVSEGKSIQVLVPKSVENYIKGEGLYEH
# Steroidogenic factor 1, sequence (Q13285 whole entry): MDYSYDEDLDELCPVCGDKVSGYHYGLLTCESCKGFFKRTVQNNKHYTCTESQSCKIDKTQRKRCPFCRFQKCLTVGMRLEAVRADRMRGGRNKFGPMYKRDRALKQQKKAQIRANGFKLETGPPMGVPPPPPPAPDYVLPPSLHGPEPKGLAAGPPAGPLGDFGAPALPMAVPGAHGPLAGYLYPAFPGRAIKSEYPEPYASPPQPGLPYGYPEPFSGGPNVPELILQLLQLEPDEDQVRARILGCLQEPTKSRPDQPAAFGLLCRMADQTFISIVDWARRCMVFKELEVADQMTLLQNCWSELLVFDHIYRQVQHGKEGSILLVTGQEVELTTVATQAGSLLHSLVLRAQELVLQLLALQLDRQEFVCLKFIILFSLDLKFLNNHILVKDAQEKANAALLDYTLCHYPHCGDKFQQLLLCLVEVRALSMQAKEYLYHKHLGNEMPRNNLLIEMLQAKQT
# Nuclear receptor subfamily 5 group A member 2, sequence (O00482 whole entry): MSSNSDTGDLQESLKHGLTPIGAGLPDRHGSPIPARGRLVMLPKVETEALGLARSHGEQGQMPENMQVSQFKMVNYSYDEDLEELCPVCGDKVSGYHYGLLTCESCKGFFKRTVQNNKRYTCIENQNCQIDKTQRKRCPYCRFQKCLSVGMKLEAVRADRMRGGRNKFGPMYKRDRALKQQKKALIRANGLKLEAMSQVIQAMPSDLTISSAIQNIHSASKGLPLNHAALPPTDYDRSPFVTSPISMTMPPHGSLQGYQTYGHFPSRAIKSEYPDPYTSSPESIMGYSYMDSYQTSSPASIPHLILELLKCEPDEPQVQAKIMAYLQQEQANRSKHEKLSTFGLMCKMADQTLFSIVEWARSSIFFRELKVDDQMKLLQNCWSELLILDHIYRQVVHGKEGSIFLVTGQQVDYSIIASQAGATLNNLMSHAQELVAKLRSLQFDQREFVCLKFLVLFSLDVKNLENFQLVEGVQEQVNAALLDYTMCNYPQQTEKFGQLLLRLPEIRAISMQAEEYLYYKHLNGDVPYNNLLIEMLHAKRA
# G-protein coupled receptor 183, sequence (P32249 whole entry, the tested form may be a part): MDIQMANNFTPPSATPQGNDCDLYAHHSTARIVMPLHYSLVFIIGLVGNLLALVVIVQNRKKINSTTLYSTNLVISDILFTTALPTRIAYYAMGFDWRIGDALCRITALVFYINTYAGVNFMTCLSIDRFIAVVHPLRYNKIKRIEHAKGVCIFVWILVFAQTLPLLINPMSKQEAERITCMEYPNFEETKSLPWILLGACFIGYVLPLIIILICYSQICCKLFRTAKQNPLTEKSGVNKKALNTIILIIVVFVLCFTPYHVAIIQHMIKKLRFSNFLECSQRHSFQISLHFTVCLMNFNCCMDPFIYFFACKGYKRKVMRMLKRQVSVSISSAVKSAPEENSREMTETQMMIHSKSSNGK
# Paired box protein Pax-8, sequence (Q06710 whole entry): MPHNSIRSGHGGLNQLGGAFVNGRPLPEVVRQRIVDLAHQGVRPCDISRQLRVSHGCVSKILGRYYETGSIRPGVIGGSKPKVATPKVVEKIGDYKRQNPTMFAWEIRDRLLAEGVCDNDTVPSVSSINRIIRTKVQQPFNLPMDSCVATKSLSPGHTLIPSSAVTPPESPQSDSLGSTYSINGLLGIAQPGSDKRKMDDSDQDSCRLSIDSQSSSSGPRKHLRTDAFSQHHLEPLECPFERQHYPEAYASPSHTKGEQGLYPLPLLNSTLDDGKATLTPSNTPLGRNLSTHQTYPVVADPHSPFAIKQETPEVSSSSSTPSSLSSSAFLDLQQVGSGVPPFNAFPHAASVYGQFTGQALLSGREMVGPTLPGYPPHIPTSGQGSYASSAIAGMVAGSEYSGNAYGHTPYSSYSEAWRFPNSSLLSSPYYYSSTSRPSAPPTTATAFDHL
structure (smiles),measurement,setting,value
CCOC(=O)C1=C(NC(=O)Nc2ccc(Cl)c(Cl)c2)Nc2ccccc2N=C1CC,EC50,[1],2.13 µM (active)
same,EC50,[2],> 60 µM (not active)
same,AC50,[3],2.11 µM (active)
same,IC50,Albumin,> 94.1 µM (inactive)
CSc1cccc(NC(=O)/C=C/c2ccc(Cl)cc2)c1,IC50,[4],> 69.5 µM (inactive)
same,IC50,[5],> 69.5 µM (inactive)
COC(=O)[C@]12C[C@H](CC(=O)NCCC(C)C)C(=O)N(Cc3cccc4ccccc34)C1=C[C@H](C(C)C)O[C@@H]2C1CC1,IC50,[4],> 69.5 µM (inactive)
same,IC50,[5],> 69.5 µM (inactive)
COc1ccccc1C#Cc1ccc([C@H]2[C@@H](CO)N3CCCCN(CCC(F)(F)F)C[C@H]23)cc1,AC50,[6],17.6 µM (active)
CC[C@]1(O)C[C@@H]2CN(CCc3c([nH]c4ccccc34)[C@@](C(=O)OC)(c3cc4c(cc3OC)N(C)[C@H]3[C@@](O)(C(=O)OC)[C@H](OC(C)=O)[C@]5(CC)C=CCN6CC[C@]43[C@@H]65)C2)C1 [VINBLASTINE SULFATE],IC50,cells,> 67.5 µM (inactive)
same,IC50,[7],> 67.5 µM (inactive)
same,AC50,Paired box protein Pax-8,< 0.26 µM (active)
same,IC50,[8],0.0048 µM (active)
same,IC50,[9],0.001 µM (active)
same,IC50,[10],0.001 µM (active)
same,IC50,[11],0.001 µM (active)
same,IC50,[12],0.0032 µM (active)
same,IC50,[13],0.001 µM (active)
same,IC50,[14],0.001 µM (active)
COC(=O)c1ccc(NC(=O)COc2cccc(-n3cnnn3)c2)cc1,IC50,[15],35.9 µM (inactive)
same,IC50,Steroidogenic factor 1,35.9 µM (inactive)
same,IC50,[16],35.9 µM (inactive)
CCCOc1ccc(N)cc1N,IC50,[17],> 20 µM (inactive)
same,IC50,[18],15.8 µM (active)
N#Cc1ccccc1S(=O)(=O)N1CCN(C(=O)/C=C/c2ccc(F)cc2)CC1,IC50,[19],0.0482 µM (active)
CSc1ccc(CN2CCC2(C)C(=O)Nc2cccc(NS(C)(=O)=O)c2)cc1 (centres undefined),AC50,[20],9.03 µM (active)
same,AC50,[21],58.6 µM (active)
same,AC50,[22],10.3 µM (active)
same,AC50,[23],11.4 µM (active)
same,AC50,[24],21.7 µM (active)
COc1ccc(/C=N\NC(=O)c2cc(O)c(O)c(O)c2)cc1CN1CCN(c2ccc(F)cc2)CC1,EC50,[25],> 150 µM (inactive)
same,EC50,[26],1.46 µM (active)
same,IC50,Albumin,> 94.2 µM (inactive)
same,IC50,Protein Tat,> 100 µM (inconclusive)
Cc1nn(-c2ccc(Cl)cc2)c(Cl)c1/C=N/NC(=O)c1ccc(NS(=O)(=O)c2cccs2)cc1,EC50,[27],1.53 µM (active)
same,EC50,Streptokinase A,> 150 µM (not active)
same,EC50,Streptococcus,5.2 µM (active)
same,IC50,[28],7.71 µM (active)
same,IC50,[29],27.4 µM (active)
